Reference: ChEMBL document CHEMBL6109045, “Photosensitizer associated with efflux pump inhibitors as a strategy for photodynamic therapy against bacterial resistance” (2025)

What was measured:
Staphylococcus aureus [1] = assay: Antibacterial activity against Staphylococcus aureus assessed as reduction in bacterial growth at 20 uM in presence of 80 J/cm2 light irradiation by photosensitization assay; type: functional
Escherichia coli [2] = assay: Antibacterial activity against Escherichia coli ATCC 25922 assessed as reduction in bacterial growth at 20 uM in presence of 100 J/cm2 light irradiation by photosensitization assay; type: functional
Staphylococcus aureus [3] = assay: Antibacterial activity against Staphylococcus aureus ATCC 25923 assessed as reduction in bacterial growth at 20 uM in presence of 100 J/cm2 light irradiation by photosensitization assay; type: functional
Escherichia coli [4] = assay: Antibacterial activity against Escherichia coli assessed as reduction in bacterial growth at 100 uM in presence of 100 J/cm2 light irradiation by photosensitization assay; type: functional
Escherichia coli [5] = assay: Antibacterial activity against Escherichia coli assessed as reduction in bacterial growth at 20 uM in presence of 80 J/cm2 light irradiation by photosensitization assay; type: functional, organism-based
Staphylococcus aureus [6] = assay: Antibacterial activity against Staphylococcus aureus ATCC 29213 assessed as reduction in bacterial growth at 8 uM in presence of 30 J/cm2 light irradiation by photosensitization assay; type: functional
Staphylococcus aureus [7] = assay: Antibacterial activity against methicillin-resistant Staphylococcus aureus ATCC 33591 assessed as reduction in bacterial growth at 8 uM in presence of 30 J/cm2 light irradiation by photosensitization assay; type: functional
Staphylococcus aureus [8] = assay: Antibacterial activity against methicillin-resistant Staphylococcus aureus ATCC 33591 assessed as reduction in bacterial growth at 1 uM in presence of 8 J/cm2 light irradiation by photosensitization assay; type: functional
Staphylococcus aureus [9] = assay: Antibacterial activity against Staphylococcus aureus ATCC 29213 assessed as reduction in bacterial growth at 0.25 uM in presence of 8 J/cm2 light irradiation by photosensitization assay; type: functional
Escherichia coli [10] = assay: Antibacterial activity against Escherichia coli assessed as reduction in bacterial growth at 8 uM in presence of 30 J/cm2 light irradiation by photosensitization assay; type: functional
Pseudomonas aeruginosa [11] = assay: Antibacterial activity against Pseudomonas aeruginosa ATCC 27853 assessed as reduction in bacterial growth at 60 ug/ml in presence of 100 J/cm2 light irradiation by photosensitization assay; type: functional; details: dose 60 µg/ml
Enterococcus faecalis [12] = assay: Antibacterial activity against Staphylococcus aureus ATCC 29212 assessed as reduction in bacterial growth at 14 uM in presence of 25 J/cm2 light irradiation by photosensitization assay; type: functional
Staphylococcus aureus [13] = assay: Antibacterial activity against Staphylococcus aureus ATCC 29213 assessed as reduction in bacterial growth at 5 uM in presence of 18 J/cm2 light irradiation by photosensitization assay; type: functional
Staphylococcus aureus [14] = assay: Antibacterial activity against Staphylococcus aureus ATCC 29213 assessed as reduction in bacterial growth at 300 ug/ml in presence of 12 J/cm2 light irradiation by photosensitization assay; type: functional; details: dose 300 µg/ml
Staphylococcus aureus [15] = assay: Antibacterial activity against methicillin-resistant Staphylococcus aureus ATCC 33591 assessed as reduction in bacterial growth at 20 uM in presence of 6 J/cm2 light irradiation by photosensitization assay; type: functional
Escherichia coli [16] = assay: Antibacterial activity against Escherichia coli K12 assessed as reduction in bacterial growth at 20 uM in presence of 6 J/cm2 light irradiation by photosensitization assay; type: functional
Staphylococcus aureus [17] = assay: Antibacterial activity against Staphylococcus aureus assessed as reduction in bacterial growth at 200 ug/ml in presence of 180 J/cm2 light irradiation by photosensitization assay; type: functional; details: dose 200 µg/ml
Staphylococcus aureus [18] = assay: Antibacterial activity against Staphylococcus aureus MCC 2408 assessed as reduction in bacterial growth at 0.62 ug/ml in presence of 18 J/cm2 light irradiation by photosensitization assay; type: functional; details: dose 0.62 µg/ml
Staphylococcus aureus [19] = assay: Antibacterial activity against Staphylococcus aureus MCC 2408 assessed as reduction in bacterial growth at 50 ug/ml in presence of 58.49 J/cm2 light irradiation by photosensitization assay; type: functional; details: dose 50 µg/ml
Pseudomonas aeruginosa [20] = assay: Antibacterial activity against Pseudomonas aeruginosa ATCC 27853 assessed as reduction in bacterial growth at 7000 ug/ml in presence of 18 J/cm2 light irradiation by photosensitization assay; type: functional; details: dose 7000 µg/ml
Staphylococcus aureus [21] = assay: Antibacterial activity against Staphylococcus aureus […] assessed as reduction in bacterial growth at 64 ug/ml in presence of 18 J/cm2 light irradiation by photosensitization assay; type: functional; details: dose 64 µg/ml
Enterococcus faecalis [22] = assay: Antibacterial activity against Enterococcus faecalis assessed as reduction in bacterial growth at 16 uM in presence of 54 J/cm2 light irradiation by photosensitization assay; type: functional
Staphylococcus aureus [23] = assay: Antibacterial activity against Staphylococcus aureus MCC 2408 assessed as reduction in bacterial growth at 400 uM in presence of 72 J/cm2 light irradiation by photosensitization assay; type: functional
Staphylococcus aureus [24] = assay: Antibacterial activity against Staphylococcus aureus MCC 2408 assessed as reduction in bacterial growth at 16 uM in presence of 54 J/cm2 light irradiation by photosensitization assay; type: functional
Pseudomonas aeruginosa [25] = assay: Antibacterial activity against Pseudomonas aeruginosa ATCC 27853 assessed as reduction in bacterial growth at 400 uM in presence of 72 J/cm2 light irradiation by photosensitization assay; type: functional
Pseudomonas aeruginosa [26] = assay: Antibacterial activity against Pseudomonas aeruginosa ATCC 27853 assessed as reduction in bacterial growth at 16 uM in presence of 54 J/cm2 light irradiation by photosensitization assay; type: functional
Pseudomonas aeruginosa [27] = assay: Antibacterial activity against Pseudomonas aeruginosa ATCC 27853 assessed as reduction in bacterial growth at 10 to 20 ug/ml in presence of 18 J/cm2 light irradiation by photosensitization assay; type: functional; details: dose 10-20 µg/ml
Klebsiella aerogenes = assay: Antibacterial activity against Klebsiella aerogenes assessed as reduction in bacterial growth at 16 uM in presence of 54 J/cm2 light irradiation by photosensitization assay; type: functional
Acinetobacter baumannii [28] = assay: Antibacterial activity against Acinetobacter baumannii ATCC BAA 747 assessed as reduction in bacterial growth at 2 uM in presence of 22.5 J/cm2 light irradiation by photosensitization assay; type: functional
Bacillus subtilis = assay: Antibacterial activity against Bacillus subtilis assessed as reduction in bacterial growth at 2 uM in presence of 22.5 J/cm2 light irradiation by photosensitization assay; type: functional
Staphylococcus aureus [29] = assay: Antibacterial activity against Staphylococcus aureus ATCC 25923 assessed as reduction in bacterial growth in presence of 6 J/cm2 light irradiation by photosensitization assay; type: functional
Escherichia coli [30] = assay: Antibacterial activity against Escherichia coli ATCC 25922 assessed as reduction in bacterial growth in presence of 6 J/cm2 light irradiation by photosensitization assay; type: functional
Pseudomonas aeruginosa [31] = assay: Antibacterial activity against Pseudomonas aeruginosa ATCC 27853 assessed as reduction in bacterial growth at 50 ug/ml in presence of 97.65 J/cm2 light irradiation by photosensitization assay; type: functional; details: dose 50 µg/ml
Pseudomonas aeruginosa [32] = assay: Antibacterial activity against Pseudomonas aeruginosa ATCC 27853 assessed as reduction in bacterial growth at 50 ug/ml in presence of 58.4 J/cm2 light irradiation by photosensitization assay; type: functional; details: dose 50 µg/ml
Staphylococcus aureus [33] = assay: Antibacterial activity against Staphylococcus aureus ATCC 25923 assessed as reduction in bacterial growth at 5 ug/ml in presence of 97.65 J/cm2 light irradiation by photosensitization assay; type: functional; details: dose 5 µg/ml
Staphylococcus aureus [34] = assay: Antibacterial activity against Staphylococcus aureus ATCC 25923 assessed as reduction in bacterial growth at 50 ug/ml in presence of 58.49 J/cm2 light irradiation by photosensitization assay; type: functional; details: dose 50 µg/ml
Acinetobacter baumannii [35] = assay: Antibacterial activity against Acinetobacter baumannii ATCC 17978 assessed as reduction in bacterial growth at 20 uM in presence of 6 J/cm2 light irradiation by photosensitization assay; type: functional
Pseudomonas aeruginosa [36] = assay: Antibacterial activity against Pseudomonas aeruginosa ATCC 27853 assessed as reduction in bacterial growth at 10 uM in presence of 100 J/cm2 light irradiation by photosensitization assay; type: functional
Acinetobacter baumannii [37] = assay: Antibacterial activity against Acinetobacter baumannii ATCC 17978 assessed as reduction in bacterial growth at 10 uM in presence of 22.5 J/cm2 light irradiation by photosensitization assay; type: functional
Acinetobacter baumannii [38] = assay: Antibacterial activity against Acinetobacter baumannii ATCC 17978 assessed as reduction in bacterial growth at 2 uM in presence of 22.5 J/cm2 light irradiation by photosensitization assay; type: functional

SMILES: C[n+]1ccc(-c2c3nc(c(-c4cc[n+](C)cc4)c4ccc([nH]4)c(-c4cc[n+](C)cc4)c4ccc([nH]4)c(-c4cc[n+](C)cc4)c4nc2C=C4)C=C3)cc1 [TMPYP4]
- log(activity) (Staphylococcus aureus [1]): 7
- log(activity) (Escherichia coli [2]): 7
- log(activity) (Staphylococcus aureus [3]): 7

SMILES: C[n+]1cccc(-c2c3nc(c(-c4ccc[n+](C)c4)c4ccc([nH]4)c(-c4ccc[n+](C)c4)c4nc(c(-c5ccc[n+](C)c5)c5ccc2[nH]5)C=C4)C=C3)c1
- log(activity) (Escherichia coli [4]): 6
- log(activity) (Escherichia coli [5]): 7

SMILES: O=S(=O)(O)c1ccc(-c2c3nc(c(-c4ccc(S(=O)(=O)O)cc4)c4ccc([nH]4)c(-c4ccc(S(=O)(=O)O)cc4)c4nc(c(-c5ccc(S(=O)(=O)O)cc5)c5ccc2[nH]5)C=C4)C=C3)cc1
- log(activity) (Escherichia coli [2]): 7
- log(activity) (Staphylococcus aureus [3]): 7

SMILES: Cc1cc(O)c2c(=O)c3c(O)cc(O)c4c5c(O)cc(O)c6c(=O)c7c(O)cc(C)c8c1c2c(c34)c(c78)c65 [HYPERICIN]
- log(activity) (Staphylococcus aureus [6]): >6
- log(activity) (Staphylococcus aureus [7]): >0.6
- log(activity) (Staphylococcus aureus [8]): >0.6
- log(activity) (Staphylococcus aureus [9]): >6
- log(activity) (Escherichia coli [10]): 0.06

SMILES: O=[N+]([O-])c1ccc(-c2c3nc(c(-c4ccc([N+](=O)[O-])cc4)c4ccc([nH]4)c(-c4ccc([N+](=O)[O-])cc4)c4nc(c(-c5ccc([N+](=O)[O-])cc5)c5ccc2[nH]5)C=C4)C=C3)cc1
- log(activity) (Pseudomonas aeruginosa [11]): 2

SMILES: COc1cc(/C=C/C(=O)CC(=O)/C=C/c2ccc(O)c(OC)c2)ccc1O [CURCUMIN]
- log(activity) (Enterococcus faecalis [12]): 10
- log(activity) (Staphylococcus aureus [13]): 7

SMILES: Cc1cc(N(C)C)cc2[s+]c3cc(N(C)C)cc(C)c3nc12.[Cl-]
- log(activity) (Staphylococcus aureus [14]): 99%

SMILES: CN(C)c1ccc2nc3ccc(N4CCN(CCCOc5ccccc5NC(=O)Nc5ccc6ccccc6c5)CC4)cc3[s+]c2c1.[Cl-]
- log(activity) (Staphylococcus aureus [15]): 3
- log(activity) (Escherichia coli [16]): 3

SMILES: CC1=C(CCC(=O)O)c2cc3[nH]c(cc4nc(cc5[nH]c(cc1n2)c(C)c5C(C)O)C(C)=C4C(C)O)c(C)c3CCC(=O)O (stereo not drawn) [HEMATOPORPHYRIN]
- log(activity) (Escherichia coli [4]): <6
- log(activity) (Staphylococcus aureus [17]): >6

SMILES: C1=Cc2nc1c(-c1ccccc1)c1ccc([nH]1)c(-c1ccccc1)c1nc(c(-c3ccccc3)c3ccc([nH]3)c2-c2ccccc2)C=C1
- log(activity) (Escherichia coli [2]): 3
- log(activity) (Staphylococcus aureus [3]): 5

SMILES: CN(C)c1ccc2nc3ccc(N(C)C)cc3[s+]c2c1.[Cl-] [METHYLENE BLUE ANHYDROUS]
- log(activity) (Staphylococcus aureus [18]): 6
- log(activity) (Staphylococcus aureus [19]): 2.38
- log(activity) (Pseudomonas aeruginosa [20]): 6
- log(activity) (Staphylococcus aureus [21]): 6
- log(activity) (Enterococcus faecalis [22]): 0.7
- log(activity) (Staphylococcus aureus [23]): 7.3
- log(activity) (Staphylococcus aureus [24]): 5
- log(activity) (Pseudomonas aeruginosa [25]): 4.1
- log(activity) (Pseudomonas aeruginosa [26]): 1.1
- log(activity) (Pseudomonas aeruginosa [27]): 6

SMILES: Cc1cc2nc3ccc(N(C)C)cc3[s+]c2cc1N.[Cl-] [TOLONIUM CHLORIDE]
- log(activity) (Klebsiella aerogenes): >8
- log(activity) (Acinetobacter baumannii [28]): 3
- log(activity) (Bacillus subtilis): >6
- log(activity) (Staphylococcus aureus [29]): 5.83
- log(activity) (Escherichia coli [30]): 0.08
- log(activity) (Pseudomonas aeruginosa [31]): 2.36
- log(activity) (Pseudomonas aeruginosa [32]): 2.2
- log(activity) (Staphylococcus aureus [33]): 2.66
- log(activity) (Staphylococcus aureus [34]): 2.21

SMILES: CN(CCCOc1ccccc1NC(=O)Nc1ccc2ccccc2c1)CCN(C)c1ccc2nc3ccc(N(C)C)cc3[s+]c2c1.[Cl-]
- log(activity) (Acinetobacter baumannii [35]): 3
- log(activity) (Staphylococcus aureus [15]): 4
- log(activity) (Escherichia coli [16]): 3

SMILES: CN(CCN(C)c1ccc2nc3ccc(N(C)C)cc3[s+]c2c1)Cc1ccc(-c2cc3cc([N+](=O)[O-])ccc3[nH]2)cc1.Cl
- log(activity) (Acinetobacter baumannii [35]): 5
- log(activity) (Staphylococcus aureus [15]): 3
- log(activity) (Escherichia coli [16]): 4

SMILES: CCNc1cc2[s+]c3cc(NCC)c(C)cc3nc2cc1C.[Cl-]
- log(activity) (Pseudomonas aeruginosa [36]): 3
- log(activity) (Acinetobacter baumannii [37]): 3
- log(activity) (Acinetobacter baumannii [38]): 6

SMILES: CN(CCN(C)c1ccc2nc3ccc(N(C)C)cc3[s+]c2c1)C(=O)c1ccc(-c2cc3cc([N+](=O)[O-])ccc3[nH]2)cc1.Cl
- log(activity) (Acinetobacter baumannii [35]): 4
- log(activity) (Staphylococcus aureus [15]): 6
- log(activity) (Escherichia coli [16]): 6
